BindingDB's records for doi:10.1021/jm500228a (Gilead Sciences, 2014)

Assay: Inhibition of Flt3 in human MV411 cells assessed as assessed as proliferation after 72 hrs incubation by spectrophotometry

EC50: 327 nM
SMILES: c1cn2cc(-c3ccc4cn[nH]c4c3)nc(Nc3ccc(N4CCOCC4)cc3)c2n1
